From publication PMC10938783, “A novel pan-PI3K inhibitor KTC1101 synergizes with anti-PD-1 therapy by targeting tumor suppression and immune activation” (Molecular Cancer, 2024)

Tested on: B16 cells gene expression
Experiment: RNA-Seq (DEGs, GSEA, heatmaps) of B16 cells
Conditions: for NES / enrichmentScore: KTC 0.2μM
[1] = B16 cells, GSEA gene set HALLMARK_ADIPOGENESIS
[2] = B16 cells, GSEA gene set HALLMARK_ALLOGRAFT_REJECTION
[3] = B16 cells, GSEA gene set HALLMARK_ANDROGEN_RESPONSE
[4] = B16 cells, GSEA gene set HALLMARK_APICAL_JUNCTION
[5] = B16 cells, GSEA gene set HALLMARK_APICAL_SURFACE
[6] = B16 cells, GSEA gene set HALLMARK_APOPTOSIS
[7] = B16 cells, GSEA gene set HALLMARK_BILE_ACID_METABOLISM
[8] = B16 cells, GSEA gene set HALLMARK_CHOLESTEROL_HOMEOSTASIS
[9] = B16 cells, GSEA gene set HALLMARK_COAGULATION
[10] = B16 cells, GSEA gene set HALLMARK_COMPLEMENT
[11] = B16 cells, GSEA gene set HALLMARK_DNA_REPAIR
[12] = B16 cells, GSEA gene set HALLMARK_E2F_TARGETS
[13] = B16 cells, GSEA gene set HALLMARK_EPITHELIAL_MESENCHYMAL_TRANSITION
[14] = B16 cells, GSEA gene set HALLMARK_ESTROGEN_RESPONSE_EARLY
[15] = B16 cells, GSEA gene set HALLMARK_ESTROGEN_RESPONSE_LATE
[16] = B16 cells, GSEA gene set HALLMARK_FATTY_ACID_METABOLISM
[17] = B16 cells, GSEA gene set HALLMARK_G2M_CHECKPOINT
[18] = B16 cells, GSEA gene set HALLMARK_GLYCOLYSIS
[19] = B16 cells, GSEA gene set HALLMARK_HEDGEHOG_SIGNALING
[20] = B16 cells, GSEA gene set HALLMARK_HEME_METABOLISM
[21] = B16 cells, GSEA gene set HALLMARK_HYPOXIA
[22] = B16 cells, GSEA gene set HALLMARK_IL2_STAT5_SIGNALING
[23] = B16 cells, GSEA gene set HALLMARK_IL6_JAK_STAT3_SIGNALING
[24] = B16 cells, GSEA gene set HALLMARK_INFLAMMATORY_RESPONSE
[25] = B16 cells, GSEA gene set HALLMARK_INTERFERON_ALPHA_RESPONSE
[26] = B16 cells, GSEA gene set HALLMARK_INTERFERON_GAMMA_RESPONSE
[27] = B16 cells, GSEA gene set HALLMARK_KRAS_SIGNALING_DN
[28] = B16 cells, GSEA gene set HALLMARK_KRAS_SIGNALING_UP
[29] = B16 cells, GSEA gene set HALLMARK_MITOTIC_SPINDLE
[30] = B16 cells, GSEA gene set HALLMARK_MTORC1_SIGNALING
[31] = B16 cells, GSEA gene set HALLMARK_MYC_TARGETS_V1
[32] = B16 cells, GSEA gene set HALLMARK_MYC_TARGETS_V2
[33] = B16 cells, GSEA gene set HALLMARK_MYOGENESIS
[34] = B16 cells, GSEA gene set HALLMARK_NOTCH_SIGNALING
[35] = B16 cells, GSEA gene set HALLMARK_OXIDATIVE_PHOSPHORYLATION
[36] = B16 cells, GSEA gene set HALLMARK_P53_PATHWAY

COc1cc(N)cc2c1nc(C(F)F)n2-c1nc(N2CCCOCC2)nc(N2CCOCC2)n1 [KTC1101, 2-(difluoromethyl)-4-methoxy-1-(4-morpholino-6-(1,4-oxazepan-4-yl)-1,3,5-triazin-2-yl)-1H-benzo[d]imidazol-6-amine]
NES, mmu05152 Tuberculosis: -0.8664
NES, mmu05164 Influenza A: 0.7158
NES, mmu05169 Epstein-Barr virus infection: 0.9901
enrichmentScore, mmu05152 Tuberculosis: -0.1994
enrichmentScore, mmu05164 Influenza A: 0.2008
enrichmentScore, mmu05169 Epstein-Barr virus infection: 0.2613
immune pathways TNFα signaling via NF-κB, inflammatory response, chemokine signaling, cytokine-cytokine receptor interaction, IL-2-STAT5 (GSEA) (B16 cells, 0.04 and 0.2 μM, 48 h): significantly upregulated at both tested concentrations
NES [1]: -1.91
enrichmentScore [1]: -0.3889
NES [2]: 1.691
enrichmentScore [2]: 0.4865
NES [3]: 0.8627
enrichmentScore [3]: 0.2417
NES [4]: 1.3836
enrichmentScore [4]: 0.3738
NES [5]: -2.057
enrichmentScore [5]: -0.6354
NES [6]: 0.9502
enrichmentScore [6]: 0.2533
NES [7]: -0.7889
enrichmentScore [7]: -0.209
NES [8]: -2.882
enrichmentScore [8]: -0.7203
NES [9]: 2.055
enrichmentScore [9]: 0.594
NES [10]: 1.839
enrichmentScore [10]: 0.5017
NES [11]: -0.6206
enrichmentScore [11]: -0.1386
NES [12]: -2.092
enrichmentScore [12]: -0.4182
NES [13]: 1.653
enrichmentScore [13]: 0.443
NES [14]: 1.194
enrichmentScore [14]: 0.32
NES [15]: -1.354
enrichmentScore [15]: -0.2968
NES [16]: -1.5293
enrichmentScore [16]: -0.3352
NES [17]: -1.723
enrichmentScore [17]: -0.3452
NES [18]: -3.021
enrichmentScore [18]: -0.6285
NES [19]: -1.553
enrichmentScore [19]: -0.4866
NES [20]: -0.8539
enrichmentScore [20]: -0.1842
NES [21]: -1.667
enrichmentScore [21]: -0.3411
NES [22]: 1.6961
enrichmentScore [22]: 0.4531
NES [23]: 1.437
enrichmentScore [23]: 0.4564
NES [24]: 1.614
enrichmentScore [24]: 0.4471
NES [25]: -0.8696
enrichmentScore [25]: -0.2269
NES [26]: 1.08
enrichmentScore [26]: 0.2921
NES [27]: 1.399
enrichmentScore [27]: 0.4365
NES [28]: 2.0673
enrichmentScore [28]: 0.5585
NES [29]: -1.3285
enrichmentScore [29]: -0.2672
NES [30]: -3.5229
enrichmentScore [30]: -0.6921
NES [31]: -0.8926
enrichmentScore [31]: -0.1781
NES [32]: -0.5144
enrichmentScore [32]: -0.1367
NES [33]: 1.795
enrichmentScore [33]: 0.4818
NES [34]: 1.2511
enrichmentScore [34]: 0.4419
NES [35]: -2.275
enrichmentScore [35]: -0.46
NES [36]: -1.372
enrichmentScore [36]: -0.2855
NES (B16 cells, GSEA gene set HALLMARK_PEROXISOME): -1.588
